The values that follow come from US20250289785A1, “INDOLE DERIVATIVE, METHOD FOR PREPARING SAME, AND USE THEREOF” (MITOIMMUNE THERAPEUTICS INC., priority 2021, published 2025).

The test system of one data set is H9C2 cells. Briefly: Cell protection effect against t-BHP in heart cells (LDH release). Type of data set: cell-based. Conditions: H9C2, t-BHP 40 μM, 2 hours. As to the method: In order to identify the protective effect with regard to heart cells, H9C2 cells were divided into 96-well plates by 1.5×10^4, and cultured for 24 hours. The respective wells were treated with compounds of the examples 3× serial diluted to final concentrations of […], then cultured for 15 to 20 minutes. After treating with t-BHP with a final concentration of 40 μM, culturing was performed for 2 hours. In order to identify the protective effect of each compound, a Cytotoxicity LDH assay kit [Dojindo; CK12] was used to measure the degree of extracellular secretion of LDH. To describe briefly, at the time point 2-hour treatment of the cells with t-BHIP was completed, 100 μL each of the supernatant in which the cells were placed was collected and moved to a new 96-well plate. 100 μL/well of the assay buffer included in the kit (same amount as the sample) was added, followed by wrapping with foil and reacting for 30 minutes at room temperature. Observing the change in color of the sample, 50 μL/well of stop solution was added, then an iD3 spectrometer was used to measure absorbance at 490 nm and calculate the EC50 values. The EC50 of the compounds of the examples is preferably no more than 1.0 μM, and more preferably no more than 0.3 μM.
For the molecule `CCOCc1cc(NC2CCOCC2)c2[nH]c(-c3ccccc3)c(-c3nccn3C(=O)OCC)c2c1` [Example 44, ethyl 2-(5-(ethoxymethyl)-2-phenyl-7-((tetrahydro-2H-pyran-4-yl)amino)-1H-indol-3-yl)-1H-imidazole-1-carboxylate], the EC50 is > 1000 nM. The molecule `CCOCc1cc(NC2CCCC2)c2[nH]c(-c3ccccc3)c(-c3ncc[nH]3)c2c1` [Example 45, N-cyclopentyl-5-(ethoxymethyl)-3-(1H-imidazol-2-yl)-2-phenyl-1H-indol-7-amine] returned a 50% effective concentration (EC50) of 300 to 1000 nM.

For the molecule `CCCOCc1cc(NC2CCOCC2)c2[nH]c(-c3ccccc3)cc2c1` [Example 47, 2-phenyl-5-(propoxymethyl)-N-(tetrahydro-2H-pyran-4-yl)-1H-indol-7-amine], the EC50 is ≤ 300 nM. For `c1ccc(-c2cc3cc(COCC4CC4)cc(NC4CCOCC4)c3[nH]2)cc1` [Example 48, 5-((cyclopropylmethoxy)methyl)-2-phenyl-N-(tetrahydro-2H-pyran-4-yl)-1H-indol-7-amine], the EC50 was ≤ 300 nM. On to `CCOCc1cc(NCC2CCOCC2)c2[nH]c(-c3ccccc3)cc2c1` [Example 49, 5-(ethoxymethyl)-2-phenyl-N-((tetrahydro-2H-pyran-4-yl)methyl)-1H-indol-7-amine], for which the concentration for a half-maximal effect (EC50) is ≤ 300 nM. The same measure, in the same setting: the figure for `COCCCc1cc(NC2CCOCC2)c2[nH]c(-c3ccccc3)cc2c1` [Example 50, 5-(3-methoxypropyl)-2-phenyl-N-(tetrahydro-2H-pyran-4-yl)-1H-indol-7-amine] is ≤ 300 nM; for `CCOCCCc1cc(NC2CCOCC2)c2[nH]c(-c3ccccc3)cc2c1` [Example 51, 5-(3-ethoxypropyl)-2-phenyl-N-(tetrahydro-2H-pyran-4-yl)-1H-indol-7-amine] it is ≤ 300 nM.

Tested on in a further data set: not listed separately
Briefly: Plasma and brain concentration after oral administration to ICR mice (HPLC-MS/MS). Type of data set: in vivo. Conditions: ICR mouse, 10 mg/kg, 2 hours after administration. The method, then:
[…] parameters can be represented as maximum concentration in plasma (Cmax), time taken until maximum concentration in plasma (Tmax), area under the plasma concentration-time curve (AUClast and AUCinf), and half-life (t1/2), and the like.
The compound of example 2 was orally administered to ICR mice at a dose of 10 mg/kg, and drug concentration in mouse plasma was measured using HPLC-MS/MS spectroscopy at 0.5, 1, 2, 4, 8 and 24 hours. The mouse brains were removed at 2 or 24 hours, and drug concentration in the brain was measured using HPLC-MS/MS spectroscopy. The area under the plasma concentration v. time curve (AUCinf) was measured to be […], and at 2 hours after administration drug concentration in plasma was 546 ng/mL and brain drug concentration was measured at 1043 ng/mL. […] Further, at 24 hours after administration, for Embodiment 2, drug concentration in plasma was measured to be 4.7 ng/mL and drug concentration in the brain was measured at 5.7 ng/mL. With the brain-plasma drug concentration ratio at 1.23, drug exposure in the brain was still high.
The Comparative Example compound was orally administered to ICR mice at a dose of 10 mg/kg, and drug concentration in mouse plasma was measured using HPLC-MS/MS spectroscopy at 0.5, 1, 2, 4, 8 and 24 hours. The mouse brains were removed at 2 or 24 hours, and drug concentration in the brain was measured using HPLC-MS/MS spectroscopy.
`OCc1cc(NC2CCCC2)c2[nH]c(-c3ccccc3)cc2c1` [Comparative Example, reference compound]: the brain drug concentration was determined as 95.1 ng/mL and the “drug concentration in plasma” value is on record as 1122.4 ng/mL.
